Where two headings read alike, the source gives them in different places.

Assay [1] addresses T1, SABP2 (Nicotiana tabacum, UniProt Q6RYA0).
T1 construct: Soluble proteins were extracted from the powdered leaves; from tissue; host or cells: tobacco leaf (cv. Xanthi nc), 50-75% ammonium sulfate fraction
T1 sequence (Q6RYA0 1-260): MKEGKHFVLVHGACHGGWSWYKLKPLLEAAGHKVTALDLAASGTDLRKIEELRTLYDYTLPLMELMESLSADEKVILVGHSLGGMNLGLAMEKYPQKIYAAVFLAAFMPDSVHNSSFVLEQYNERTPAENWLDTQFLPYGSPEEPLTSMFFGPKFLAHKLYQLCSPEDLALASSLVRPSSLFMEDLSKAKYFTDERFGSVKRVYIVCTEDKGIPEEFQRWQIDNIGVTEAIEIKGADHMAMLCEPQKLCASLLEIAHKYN
As to the kind of experiment: [3H]SA competition assay with unlabeled SA and SA analogues. The assay is classed as binding, tobacco. How it is done: (§1) [3H]SA binding and competition assays. […] Spin columns were prepared by packing Sephadex G25 gel (exclusion limit 5 kDa; Pharmacia), which was pre-equilibrated in buffer A, in a 1-mL disposable syringe and centrifuging at 1,000 g for 4 minutes at 4° C. This process was repeated until the bed volume of the spin column reached 1 mL. One additional spin with 125 μL buffer A was performed under the same centrifugation conditions. The binding mixture (125 μL) was loaded onto the spin column and immediately centrifuged. […] When no protein extract was included in the binding mixture, the background radioactivity level was 33±3 dpm/100 μL. For the boiling treatment, the extract was boiled for 5 minutes and denatured protein aggregates were removed by centrifugation at 12,000 g for 1 minute.

The test system of assay [2] is PR gene expression and enhanced disease resistance. The arrangement: key to Biological activity: +, active; -, inactive. Conditions: cited from earlier work; for Biological activity: based on FIG. 7 and literature.
The subject of the next assay is PR-1 gene expression. Put plainly: Induction of PR-1 gene expression in leaf discs (northern blot). The conditions noted are these: Nicotiana tabacum, foliar, 24 hours after treatment, read-out: concentration giving 15-fold induction of PR-1 gene expression. In kind it is cell-based, tobacco. The source says:
As a control, rRNA present in each lane is also shown. FIG. 7B is a graph showing quantification of the fold-induction of the PR-1 mRNA levels after SA (.cndot.) and BTH (.smallcircle.) treatment. The levels of PR-1 mRNA were normalized to the amounts of rRNA. The rRNA-normalized levels of PR-1 mRNA obtained after infiltration of leaf discs with SA or BTH were divided by the rRNA-normalized level of PR-1 mRNA obtained after infiltration with water only to determine the fold induction. The data presented are from a single experiment; two additional experiments were done. The maximum-fold induction of the PR-1 genes and the concentrations of SA and BTH required to reach approximately 50% of this value varied somewhat among the three experiments, depending on the age of the plant. In the three experiments, the concentrations of BTH needed to reach approximately 50% induction were 30- to 40-fold lower than those for SA.

Assay [3] has as its target T2, tobacco catalase (Nicotiana tabacum, UniProt P49319).
T2 construct: tobacco catalase activity in suspension cells and in crude leaf extracts; host or cells: tobacco suspension cells, crude leaf extracts, purified enzyme
T2 sequence (P49319 1-492): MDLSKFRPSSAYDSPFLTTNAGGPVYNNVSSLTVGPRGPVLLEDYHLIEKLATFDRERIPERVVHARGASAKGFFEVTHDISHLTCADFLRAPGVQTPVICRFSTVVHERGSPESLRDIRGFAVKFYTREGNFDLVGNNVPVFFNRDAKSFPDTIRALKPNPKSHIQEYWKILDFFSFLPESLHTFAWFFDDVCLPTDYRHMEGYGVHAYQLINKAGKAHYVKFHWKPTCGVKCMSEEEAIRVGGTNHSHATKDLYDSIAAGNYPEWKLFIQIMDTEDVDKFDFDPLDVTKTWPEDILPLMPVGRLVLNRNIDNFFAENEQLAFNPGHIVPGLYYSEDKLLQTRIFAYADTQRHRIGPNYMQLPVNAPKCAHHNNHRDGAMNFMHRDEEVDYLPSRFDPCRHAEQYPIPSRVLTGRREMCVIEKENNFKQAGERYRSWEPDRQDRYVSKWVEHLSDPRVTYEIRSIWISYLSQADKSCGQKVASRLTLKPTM
Put plainly: Inhibition of catalase activity. The assay is classed as biochemical. Conditions: unpublished data.

In assay [4] the target is T2, tobacco catalase. Conditions: cited from earlier work.
Assay [5] deals with tobacco catalase. The conditions noted are these: in vivo; cited from earlier work.
The target in assay [6] is T1, SABP2. Put plainly: [3H]SA binding assay (kinetics, reversibility, saturation, Scatchard plot). The conditions noted are these: for time until binding is complete / approaches equilibrium: 0-4° C. The arrangement: species or system tobacco. As for the experimental part: as §1
The next assay deals with T3, catalase (Nicotiana tabacum, UniProt P49319).
T3 construct: has been identified in tobacco leaf extracts; host or cells: tobacco leaf extracts
T3 sequence (P49319 1-492): T2 sequence (P49319 1-492)
The conditions noted are these: cited from earlier work.

The test system of a further assay is APX. Conditions: cited from earlier work.
[7] abbreviates: 50-75% fraction, 0.1 μM [3H]SA, on ice 2 hours, estimated from FIG. 6, read-out: IC50 of competition for [3H]SA binding.

Turning to `O=C(O)c1cc(O)ccc1O` [2,5-dihydroxybenzoic acid], the IC50 (usually the concentration needed to halve the response being measured) on SABP2 [1] (setting [7]) is 20 µM. Besides, in assay [2], the Biological activity entry was “-”. Besides, the “Biologically active / inactive (FIG. 6 legend)” value (“Biologically active / inactive” below) in assay [2] (in vivo) was “biologically inactive”.
With `O=C(O)c1c(O)cccc1O` [2,6-dihydroxybenzoic acid], the IC50 on SABP2 [1] (setting [7]) was 2 µM. In addition, the Biological activity result in assay [2] is reported as “+”. In assay [2] (in vivo), the “Biologically active / inactive” value is on record as “Biologically active”.
Consider `O=C(O)c1cccc(O)c1` [3-hydroxybenzoic acid], for which, on SABP2 [1] (setting [7]), the IC50 was 105 µM. The Biological activity entry in assay [2] is on record as “-”. For the same compound, the “Biologically active / inactive” value in assay [2] (in vivo) was “biologically inactive”.
As for `O=C(O)c1ccc(O)cc1` [4-hydroxybenzoic acid], the IC50 at SABP2 [1] (setting [7]) was greater than 1000 µM. The Biological activity entry in assay [2] is recorded as “-”. In assay [2] (in vivo), the “Biologically active / inactive” value is “biologically inactive”.
`O=C(O)c1cc(Cl)ccc1O` [5-chloroSA, 5-chlorosalicylic acid]: the IC50 on SABP2 [1] (setting [7]) was 0.3 µM. Besides, in assay [2], the Biological activity result is reported as “+”. The “Biologically active / inactive” value in [2] (in vivo) is “Biologically active”.
With `CSC(=O)c1cccc2nnsc12` [BTH, benzo(1,2,3)thiadiazole-7-carbothioic acid S-methyl ester], the IC50 at SABP2 [1] turned out to be 0.1 µM. Besides, in the assay with PR-1 gene expression, the EC (15-fold) is roughly 3.3 µM. Further, the “catalase inhibition compared with SA” value at tobacco catalase [3] is “more effective inhibitor of catalase than SA”. In addition, the Biological activity result in assay [2] is “+”. The “Biologically active / inactive” value in assay [2] (in vivo) is “Biologically active”.
Compound `O=C(O)c1cc(Cl)nc(Cl)c1` [INA, 2,6-dichloroisonicotinic acid] came in with an IC50 on SABP2 [1] of 70 µM. Besides, the Biological activity entry in [2] is given as “+”. Further, the “Biologically active / inactive” value in [2] (in vivo) was “Biologically active”. Besides, the “inhibition of catalase activity in crude extracts” value at tobacco catalase [4] (crude extracts) is “less effective at inhibiting catalase activity in crude extracts”. The “inhibition of purified tobacco catalase” value at tobacco catalase [4] (purified enzyme) is reported as “fails to inhibit purified tobacco catalase”. Besides, the “inhibition of tobacco catalase in vivo” value in the assay with tobacco catalase [5] is “effectively blocks tobacco catalase in vivo”.
`O=C(O)c1ccccc1O[C@@H]1O[C@H](CO)[C@@H](O)[C@H](O)[C@H]1O` [SA β-glucoside]: the “induction of disease resistance” value in assay [2] (in vivo) was “not active”.
For `O=C(O)c1ccccc1O` [SA, salicylic acid], the IC50 at SABP2 [1] turned out to be 1.5 µM. Further, at SABP2 [6], the “time until binding is complete / approaches equilibrium” value lay within 15 to 20 min. In addition, the inhibition at 1000 µM at SABP2 [6] (50-75% fraction, 1 mM SA, 0.1 μM [3H]SA, read-out: reduction of binding activity in the presence of excess unlabeled SA) turned out to be 85%. In addition, the remaining activity at 1000 µM on SABP2 [6] (100% = binding after 160 minutes of incubation, read-out: [3H]SA binding remaining after addition of 1 mM SA) was less than 10%. The Kd (in general, a measure of binding affinity in units of concentration) is 90 nM at SABP2 [6] (Scatchard plot, 50-75% fraction) and 14 µM on catalase ([14C]SA, tobacco leaf extracts, read-out: Kd of SA binding to catalase). Further, the “time until binding to catalase approaches equilibrium” value at catalase is 90 to 120 min. Besides, in [2], the Biological activity result is listed as “+”. For the same compound, the “Biologically active / inactive” value in assay [2] (in vivo) is given as “Biologically active”. In addition, at tobacco catalase [4], the “SA level required for effective inhibition of catalase activity” value was 50 to 300 µM. Further, the “SA level required for effective inhibition of APX activity” value in the assay on APX was 50 to 300 µM.
With `O=C(O)c1ccccc1O` [[^3 H]SA], the “time until binding is complete / approaches equilibrium” value at SABP2 [6] is given as “approximately 20 minutes”. Moreover, the half association time on SABP2 [6] (50-75% fraction) turned out to be 5 min.
